Series [1] relates to leukocyte infiltration in lung tissues. Briefly: Hind-limb ischemia-reperfusion-induced second-organ (lung) injury, lung MPO by ELISA. Particulars: for percent reduction of MPO found in lungs (FIG. 11), mean±SEM: 1 μg i.v. in vehicle, ischemia-reperfusion. The series is classed as in vivo, mice. The method, then:
To identify the effects of the resolvins and protectins on inflammation resolution, ischemia-reperfusion induced second-organ injury experiments were designed and are illustrated in FIGS. 7A-D. Mice were anesthetized by intraperitoneal injection of pentobarbital (80 mg kg^−1, Nembutal sodium solution NDC 0074-3778-04). Hind-limb ischemia was initiated using tourniquets consisting of a rubber band placed on each hind limb as in ref.^35. Mice were subjected to hind limb ischemia for 1 h, after which the tourniquets were removed to initiate reflow-reperfusion. Resolvins, related compounds and analogs were each administered at 1 μg/mouse (i.e., DHA, RvD1, RvD1 methyl ester, 17-(R/S)-methyl-RvD1 methyl ester, RvE1, or 19-p-fluorophenoxy-RvE1 methyl ester) in vehicle (5 μl ethanol in 120 μl sterile saline) or vehicle alone. They were administered intravenously to the tail vein ˜5 min before the start of the reperfusion period. At the end of this reperfusion period (2 h), the mice were euthanized with an overdose of anesthetic and the lungs were quickly harvested, frozen in liquid nitrogen, and stored at −80° C. The right lungs were homogenized from individual mice and centrifuged, and the tissue levels of myeloperoxidase (MPO) (a leukocyte marker enzyme) in the resulting supernatants, for each experimental protocol, were determined using a mouse MPO enzyme-linked immunosorbent assay (Hycult biotechnology, Cell Sciences, Uden, The Netherlands).
Briefly, as illustrated in the time-course shown in FIG. 7A, hind-limb ischemia was induced in mice by creating tourniquets using a rubber band on each hind limb. After 1 h, the tourniquets were removed and reperfusion ensued. Test compounds (1 μg of DHA, RvD1, RvE1) in vehicle were administered intravenously 5 min before the start of the reperfusion period. At the end of the reperfusion period (2 h), lungs were collected and MPO concentrations were determined by ELISA. FIGS. 7B and C are representative images from histological analysis. FIG. 9B is a photomicrograph showing a hematoxylin/eosin-stained lung from ischemia/reperfusion second organ injury (control). […] Mean±SEM (n=3-5, control; n=12).
Ischemia/reperfusion is a well-appreciated pathophysiologic mechanism of organ injury and local tissue damage that can be initiated by excessively activated PMN. This system in the mouse, models the second organ injury observed in humans following tourniquet release of vessels in surgery involving, for example, extremities^41, 42. Remote or second organ injury can also occur when blood vessels are occluded, or during certain surgical procedures that create local ischemia and remote organ injury that has many features of rapid, acute inflammation and tissue damage^35. On release of the tourniquet occlusion, reflow is initiated and activated PMN rapidly infiltrate secondary organs, causing damage^35. Here, the inventors evaluated RvD1 in a remote organ injury system, i.e., hind-limb ischemia/reperfusion, to assess whether RvD1's ability to inhibit PMN migration, in vitro, in microchambers (FIGS. 8A-C, 9-11) can be predictive of their effect to reduce PMN mediated tissue and organ damage in vivo. […] The extent of lung tissue injury is associated with PMN activation and organ infiltration^35.
(In an ELISA, binding on a coated surface is turned into a signal by an enzyme label.)

A further series concerns human PMN. Briefly: Microfluidic chemotaxis device: PMN chemotaxis in IL-8 gradient. The class given is cell-based. Particulars: 10 nM (DHA equimolar), PMN captured on P-selectin from a drop of whole blood, n=12. An excerpt:
A new microvolume chemotaxis device was designed using polyethylene glycol (PEG) that allows testing the chemotactic function of neutrophils and their responses to these novel lipid mediators immediately after being separated from whole blood within the device. One exemplary embodiment of the device is illustrated in FIGS. 8A-C. In this embodiment, the microvolume chemotaxis device with microstructured valves was fabricated using “lab-on-chip” microfabrication technologies^36. Briefly, two silicon wafers were coated with a 50-μm-thick layer of SU8 photoresist (MicroChem, Newton, Mass.). After exposure to UV light through a mylar mask in a mask, aligner and development following manufacturer recommendations, 50 μm-tall features were produced on top of the silicon wafers. Subsequently, poly (dimethylsiloxane) (PDMS, Dow Corning, Midland, Mich.) was prepared by mixing two components in 10:1 ratio, as recommended by the manufacturer. […]
After assembly, different sections of the device were chemically modified for specific functionalities. […] The surface of the chemotaxis chamber, where neutrophils were captured and assessed for their chemotactic responses, were modified by physical adsorption of P-selectin (10 ng/mL for 30 minutes, R&D Systems, Minneapolis, Minn.) immediately before use. […]

The nature of series [2]: Zymosan A-induced murine peritonitis: appearance of i.v. labeled omega-3 fatty acids in peritoneal exudates. The series is classed as in vivo, male FVB mice. Particulars: for time of maximum level in peritoneal exudate: 1 μg/mouse i.v. just before i.p. zymosan A, GC-MS; for exudate level at 48 h compared with 24 h: 1 μg/mouse i.v., p<0.05. Here is the method:
Male FVB mice were anesthetized with isoflurane (Hospira Inc, Lake Forest, Ill.). Both 1 μg d5-DHA (4Z,7Z,10Z,13Z,16Z,19Z-docosahexaenoic-21,21,22,22,22-d5 acid: Cayman Chemical, Ann Arbor, Mich.) and 1 μg d5-EPA (5Z,8Z,11Z,14Z,17Z-eicosapentaenoic-19,19′,20,20,20-d5 acid: Cayman Chemical, Ann Arbor, Mich.) in 100 μl of 2% ethanol (v/v) in saline or vehicle alone were administered by bolus tail vein injection. Approximately five minutes later, peritonitis was initiated with intraperitoneal administration of 1 mg of zymosan A (Sigma Aldrich, St. Louis, Mo.). At indicated time intervals, mice were euthanized with an overdose of isoflurane, and peritoneal exudates were collected by lavage with 5 ml of DPBS without either Ca^2+ or Mg^2+. Exudate cells and supernatants were separated by centrifugation (10 min, 1000 rpm, 4° C.), aliquots of supernatants were collected, and 4 volumes of cold acetone were added to precipitate proteins. Serum albumin and total protein levels were determined^32.
Briefly, FVB mice (6-8 wk) received d5-EPA and d5-DHA i.v. (1 μg/mouse of each) (FIG. 4D, top panel) just before i.p. challenge with zymosan A (1 mg/ml/mouse) (FIG. 4D, middle panel). Peritoneal exudates were collected at 0, 2, 4, 12, 24 and 48 h and taken to solid phase extraction. Eluate fractions were treated with diazomethane and taken to GC-MS. Results represent the mean±SEM from n=3, separate mice. Mass spectra of d5-EPA methyl ester and d5-DHA methyl ester. d5-EPA and d5-DHA were derivatized into methyl esters and submitted to GC-MS for analysis shown in FIGS. 4A-C.
For tracer experiments, mice were fasted overnight (˜18 h) before 500 nCi of [1-^14C]-DHA (docosahexaenoic acid 4,7,10,13,16,19-[1-^14C], American Radiolabeled Chemicals Inc, St. Louis, Mo.) was injected via the tail vein. At indicated time intervals, exudates were collected (vide supra) and the radioactivity was determined using a scintillation counter (Multi-purpose scintillation counter LS6500, Beckman Coulter, Fullerton, Calif.).
Upon collection of peritoneal exudates, 2 volumes of cold methanol and internal standard (500 ng/sample, trans-parinaric acid, Molecular Probe, Eugene, Oreg.) were added to exudates, which were stored at −20° C. for 1 hr. After centrifugation, samples were diluted and applied to C18 cartridge columns (Extract-Clean EV SPE, Alltech, Deerfield, Ill.). Lipids were extracted using hexane and methyl formate and each fraction was collected and its unesterified fatty acids converted to corresponding methyl ester using diazomethane treatment^34. The esters were suspended in hexane, and then injected in GC-MS. Electron-impact GC-MS was carried out using an HP 6890 GC system with HP5973 Mass Selective Detector (Hewlett-Packard) equipped with an HP-5MS capillary column (0.25 mm ID×30 m, 0.25 μm, Agilent Technologies Inc., Wilmington, Del.) operating at a mass range from m/z 70 to 800. The ionization voltage was 70 eV and the ion source temperature was 230° C. Chromatography was carried out using a column temperature maintained at 150° C. for 2 min and then programmed to increase 10° C./min up to 230° C., 5° C./min up to 280° C., and then maintained at 280° C. for 10 min. EPA and DHA were separated and the area beneath each chromatographic peak of their deuterium labels was obtained by integration using a Chemstation integrator Version D.02.00.275 (Agilent Technologies Inc). […] The inventors selected the ω-3 ion ((CH)3CH2(CH)2CD2CD3=113) for both d5-EPA (FIG. 4A) and d5-DHA (FIG. 4B) methyl ester and M^+(290) for methyl parinate (FIG. 4C). Identification was conducted by examining and retention times as in FIGS. 4A-C (d5-EPA-methyl ester: 11.7 min FIG. 4A, inset, methyl-parinarate; 13.1 min (FIG. 4C, and d5-DHA; 13.9 min, FIG. 4B, inset). Calibration curves were obtained for each: d5-EPA; y=0.0016x+0.0313 (r^2=0.9954, 50-500 ng/ml), d5-DHA; y=0.0015x-0.0524 (r^2=0.9809, 50-500 ng/ml). […]

The values that follow come from US20110237495A1, “FUNCTIONAL METABOLOMICS COUPLED MICROFLUIDIC CHEMOTAXIS DEVICE AND IDENTIFICATION OF NOVEL CELL MEDIATORS” (The Brigham and Women's Hospital, Inc. Corporate Sponsored …, priority 2008, published 2011).

Entries after “also recorded” stand apart in the source; their conditions may differ.

Consider `CC/C=C\CC(C)(O)/C=C/C=C\C=C\C=C\[C@@H](O)[C@@H](O)C/C=C\CCC(=O)OC` (mixture of isomers) [17-(R/S)-methyl-RvD1-Me, 17-(R/S)-methyl-RvD1 carboxymethyl ester], for which, in series [1], the “percent reduction of MPO found in lungs (FIG. 11), mean±SEM” value was found to be 29.3 ±6.4%.

As for `CC/C=C\C[C@H](O)/C=C/C=C\C=C\C=C\[C@@H](O)[C@@H](O)C/C=C\CCC(=O)O` [RvD1, 7S,8R,17S-trihydroxy-4Z,9E,11E,13Z,15E,19Z-docosahexaenoic acid], the “reduction of lung MPO concentration (FIG. 7D), mean±SEM” value in series [1] (1 μg i.v. 5 min before reperfusion, lungs collected after 2 h reperfusion) came to 47.5±2.4. Also, the “reduction of leukocyte infiltration” value in series [1] (1 μg/mouse, ischemia/reperfusion injury) is ~50%. Further, the “effect on PMN migration (chemotaxis) in IL-8 gradient” value with human PMN is “essentially completely stop PMN movements; also recorded: chemotaxis immediately ceased”.

`CC/C=C\C[C@H](O)/C=C/C=C\C=C\C=C\[C@@H](O)[C@@H](O)C/C=C\CCC(=O)OC` [RvD1-Me, RvD1 carboxymethyl ester]: in series [1], the “percent reduction of MPO found in lungs (FIG. 11), mean±SEM” value is 22.9 ±6.8%.

For the compound `CC/C=C\C/C=C\C/C=C\C/C=C\C/C=C\C/C=C\CCC(=O)O` [^14C-DHA, docosahexaenoic acid 4,7,10,13,16,19-[1-^14C]], the “time at which 14C label reached maximal levels in exudate” value in series [2] (500 nCi i.v., mice fasted overnight, scintillation counting) is on record as 1 h. Besides, the “effect on leukocyte trafficking (FACS analysis of exudates)” value in series [2] (tracer levels i.v.) was “did not reduce leukocyte trafficking”.

Turning to `[2H]C([2H])([2H])C([2H])([2H])/C=C\C/C=C\C/C=C\C/C=C\C/C=C\C/C=C\CCC(=O)O` [d5-DHA, 4Z,7Z,10Z,13Z,16Z,19Z-docosahexaenoic-21,21,22,22,22-d5 acid], in series [2], the “time of maximum level in peritoneal exudate” value is recorded as 2 h and the “exudate level at 48 h compared with 24 h” value is “significantly greater than at 24 h”.

Turning to `[2H]C([2H])([2H])C([2H])([2H])/C=C\C/C=C\C/C=C\C/C=C\C/C=C\CCCC(=O)O` [d5-EPA, 5Z,8Z,11Z,14Z,17Z-eicosapentaenoic-19,19′,20,20,20-d5 acid], in series [2], the “time of maximum level in peritoneal exudate” value worked out at 4 h and the “exudate level at 48 h compared with 24 h” value is “significantly greater than at 24 h”.
